Columns and labels:
[1] = tested on: human coronavirus strain OC-43; type: cell-based
[2] = tested on: Mouse Hepatitis Virus Type-3 (MHV-3); details: in vivo; cited from earlier work
[3] = tested on: human coronavirus strain OC-43; type: cell-based; remark: listed apart in the source
[4] = tested on: Four human tumor cell lines; details: cited from earlier work
[5] = tested on: Mouse Hepatitis Virus Type-3 (MHV-3); details: in vivo; cited from earlier work; remark: listed apart in the source
coronavirus (SARS) = details: cited from earlier work

Molecule	Inhibition of virus in neutral red assay [1]	Survival relative to untreated mice [2]	Inhibition of virus in viral cytopathic inhibition assay [3]	Antiproliferative interaction with interferons [4]	Virus clearance and development of chronic hepatitis [5]	Effect on the SARS coronavirus (coronavirus (SARS))
rIn.r(C12U)n	inhibit	survived up to four times longer	inhibit	worked synergistically with all interferons in all cell lines studied	cleared the virus quickly and did not develop chronic hepatitis	–
NC(=O)c1ncn([C@@H]2O[C@H](CO)[C@@H](O)[C@H]2O)n1 [ribavirin]	–	–	–	–	–	no effect
